Data reported in US11925630B1, “6′-(2-bromophenyl)-2′-methoxy-3,4′-bipyridine-3′-carbonitrile as an antioxidant compound” (KING FAISAL UNIVERSITY, priority 2023, dated 2024).

Experiment: DPPH radical scavenging antioxidant test
Type: biochemical
Settings: 517 nm; for Inhibition (radical scavenging inhibition): 0.2 mL DPPH (0.75 mM), compound 3 μM in ethanol, 30 minutes in the dark
Procedure: The antioxidant activity of 6′-(2-bromophenyl)-2′-methoxy-3,4′-bipyridine-3′-carbonitrile was investigated by 2,2-diphenyl-1-picrylhydrazyl (DPPH) in vitro tests that employ vitamin C as the positive control.
The antioxidant properties of the 6′-(2-bromophenyl)-2′-methoxy-3,4′-bipyridine-3′-carbonitrile compound were studied by adding 0.2 mL DPPH (0.75 mM)) to 6′-(2-bromophenyl)-2′-methoxy-3,4′-bipyridine-3′-carbonitrile (3 μM) (4) in ethanol. After 30 minutes of incubation in the dark, the absorbance was read against a blank at 517 nm. Ascorbic acid (vitamin C) was used as standard antioxidants (positive control). A blank sample was prepared by 0.2 mL of DPPH in 3 mL ethanol. A negative control sample was run using ethanol instead of the sample. The radical scavenging inhibition was calculated using the following equation: […]
The antioxidant activity for the synthesized compound is listed in Table 1, using Vitamin C as a reference.

SMILES	Inhibition (radical scavenging inhibition) [%]	antioxidant potential compared to vitamin C (in words) (DPPH in vitro test, vitamin C as positive control)
O=C1O[C@H]([C@@H](O)CO)C(O)=C1O [vit c, Ascorbic acid, reference compound]	74	
COc1nc(-c2ccccc2Br)cc(-c2cccnc2)c1C#N [Product 4, 6′-(2-bromophenyl)-2′-methoxy-3,4′-bipyridine-3′-carbonitrile]	50	high potential as an antioxidant
